One block for each molecule: values may come before it. Calls of active or inactive are those of the source.
Experiments:
[1] = biological target: T1, Oxysterols receptor LXR-beta (Homo sapiens, UniProt P55055); assay type: functional, cell-based;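 also: agonist activity at LXR measured by a cell-based luminescence readout across a dose range, run as a counterscreen for daf-12 agonists; HEK293 cells with Gal4-LXR fusion and GAL4-driven luciferase reporter; potency for activation of Gal4-LXR reporter so compounds are agonists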
T1 sequence (P55055 whole entry): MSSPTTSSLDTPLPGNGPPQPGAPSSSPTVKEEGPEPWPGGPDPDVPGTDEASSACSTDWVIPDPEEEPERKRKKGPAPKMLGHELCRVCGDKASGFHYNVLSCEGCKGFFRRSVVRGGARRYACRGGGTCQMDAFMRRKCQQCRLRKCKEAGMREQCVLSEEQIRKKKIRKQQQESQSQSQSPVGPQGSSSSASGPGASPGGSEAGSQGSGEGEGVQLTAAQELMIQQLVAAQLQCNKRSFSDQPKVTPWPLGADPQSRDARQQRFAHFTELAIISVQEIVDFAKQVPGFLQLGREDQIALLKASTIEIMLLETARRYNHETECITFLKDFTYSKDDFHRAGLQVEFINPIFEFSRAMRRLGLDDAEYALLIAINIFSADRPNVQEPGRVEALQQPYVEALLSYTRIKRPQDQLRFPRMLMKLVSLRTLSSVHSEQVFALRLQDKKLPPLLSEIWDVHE

[2] = biological target: T2, 1-phosphatidylinositol 4,5-bisphosphate phosphodiesterase gamma-1 (Homo sapiens, UniProt P19174); test: Counterscreen for inhibitors of phospholipase C isozymes (PLC-B3): Fluorescence-based biochemical high throughput dose response assay to identify inhibitors of phospholipase C isozymes (PLC-gamma1).
T2 sequence (P19174 whole entry): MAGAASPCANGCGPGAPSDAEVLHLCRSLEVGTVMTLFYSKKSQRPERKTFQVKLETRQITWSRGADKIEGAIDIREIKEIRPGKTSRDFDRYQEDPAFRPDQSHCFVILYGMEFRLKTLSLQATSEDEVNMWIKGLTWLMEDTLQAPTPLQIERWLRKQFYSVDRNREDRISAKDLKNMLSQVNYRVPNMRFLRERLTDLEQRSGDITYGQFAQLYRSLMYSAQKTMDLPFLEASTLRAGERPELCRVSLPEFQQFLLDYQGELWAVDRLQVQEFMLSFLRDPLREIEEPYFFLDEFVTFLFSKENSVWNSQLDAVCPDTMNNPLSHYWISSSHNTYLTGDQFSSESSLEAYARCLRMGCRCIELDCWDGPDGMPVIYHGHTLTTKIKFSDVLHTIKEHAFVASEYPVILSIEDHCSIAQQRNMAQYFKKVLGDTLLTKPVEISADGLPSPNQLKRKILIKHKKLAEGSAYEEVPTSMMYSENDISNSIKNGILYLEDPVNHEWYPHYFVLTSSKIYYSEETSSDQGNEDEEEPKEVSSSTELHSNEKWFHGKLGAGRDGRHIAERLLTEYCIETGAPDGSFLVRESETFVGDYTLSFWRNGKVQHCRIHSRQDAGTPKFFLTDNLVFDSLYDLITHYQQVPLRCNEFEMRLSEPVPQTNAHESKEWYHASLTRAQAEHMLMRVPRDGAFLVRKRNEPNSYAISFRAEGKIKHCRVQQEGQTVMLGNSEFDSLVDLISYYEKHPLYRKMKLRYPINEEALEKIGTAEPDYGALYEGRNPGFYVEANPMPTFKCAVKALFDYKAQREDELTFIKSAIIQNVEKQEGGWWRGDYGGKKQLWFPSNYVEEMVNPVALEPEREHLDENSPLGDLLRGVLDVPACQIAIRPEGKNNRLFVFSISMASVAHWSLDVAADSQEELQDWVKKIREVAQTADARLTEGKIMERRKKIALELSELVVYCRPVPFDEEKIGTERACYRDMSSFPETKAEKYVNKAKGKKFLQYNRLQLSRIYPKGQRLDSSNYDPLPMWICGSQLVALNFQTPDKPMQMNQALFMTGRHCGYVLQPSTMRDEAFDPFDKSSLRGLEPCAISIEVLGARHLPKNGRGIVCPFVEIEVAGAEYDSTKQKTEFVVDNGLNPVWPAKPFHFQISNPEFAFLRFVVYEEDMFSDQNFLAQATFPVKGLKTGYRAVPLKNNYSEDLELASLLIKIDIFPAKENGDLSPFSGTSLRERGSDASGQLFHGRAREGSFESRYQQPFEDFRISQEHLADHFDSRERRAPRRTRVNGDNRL

[3] = biological target: T3, 1-phosphatidylinositol 4,5-bisphosphate phosphodiesterase beta-3 (Homo sapiens, UniProt Q01970); test: Fluorescence-based biochemical high throughput dose response assay to identify inhibitors of phospholipase C isozymes (PLC-B3).
T3 sequence (Q01970 whole entry): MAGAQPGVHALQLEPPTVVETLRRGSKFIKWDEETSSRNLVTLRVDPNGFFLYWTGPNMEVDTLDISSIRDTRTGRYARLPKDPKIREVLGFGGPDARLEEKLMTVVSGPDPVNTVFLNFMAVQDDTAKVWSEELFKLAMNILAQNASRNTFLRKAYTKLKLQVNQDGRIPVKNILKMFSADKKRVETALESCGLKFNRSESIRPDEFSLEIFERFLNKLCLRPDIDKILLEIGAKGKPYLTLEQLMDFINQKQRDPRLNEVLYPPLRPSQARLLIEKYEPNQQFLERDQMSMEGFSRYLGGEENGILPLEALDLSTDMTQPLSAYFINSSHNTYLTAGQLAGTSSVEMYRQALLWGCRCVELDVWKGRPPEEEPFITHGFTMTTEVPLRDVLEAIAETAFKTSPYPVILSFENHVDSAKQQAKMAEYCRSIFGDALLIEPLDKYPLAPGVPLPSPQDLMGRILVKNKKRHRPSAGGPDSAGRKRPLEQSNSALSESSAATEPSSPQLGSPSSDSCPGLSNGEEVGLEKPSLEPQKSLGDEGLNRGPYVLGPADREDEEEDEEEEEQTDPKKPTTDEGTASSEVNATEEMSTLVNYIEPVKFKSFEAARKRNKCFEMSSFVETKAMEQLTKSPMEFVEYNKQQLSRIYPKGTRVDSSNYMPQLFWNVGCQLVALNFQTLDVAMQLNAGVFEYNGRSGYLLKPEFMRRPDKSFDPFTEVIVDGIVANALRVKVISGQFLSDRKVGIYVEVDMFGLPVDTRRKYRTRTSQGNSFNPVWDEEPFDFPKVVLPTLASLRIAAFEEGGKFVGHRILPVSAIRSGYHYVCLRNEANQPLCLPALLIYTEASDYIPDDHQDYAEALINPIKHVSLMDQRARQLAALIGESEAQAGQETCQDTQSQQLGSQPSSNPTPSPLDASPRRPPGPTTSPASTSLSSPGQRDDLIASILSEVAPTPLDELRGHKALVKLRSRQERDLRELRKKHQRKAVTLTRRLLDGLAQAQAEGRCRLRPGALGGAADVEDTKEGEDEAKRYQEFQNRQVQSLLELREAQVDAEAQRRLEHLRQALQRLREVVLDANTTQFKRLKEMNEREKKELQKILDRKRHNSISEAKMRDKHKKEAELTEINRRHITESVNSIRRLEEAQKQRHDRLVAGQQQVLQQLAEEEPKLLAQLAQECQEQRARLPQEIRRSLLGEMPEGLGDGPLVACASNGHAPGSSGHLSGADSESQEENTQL

[4] = biological target: T4, fMet-Leu-Phe receptor (Homo sapiens, UniProt P21462); test: FPR ligands, dose response (AID 519); assay type: functional
T4 sequence (P21462 whole entry): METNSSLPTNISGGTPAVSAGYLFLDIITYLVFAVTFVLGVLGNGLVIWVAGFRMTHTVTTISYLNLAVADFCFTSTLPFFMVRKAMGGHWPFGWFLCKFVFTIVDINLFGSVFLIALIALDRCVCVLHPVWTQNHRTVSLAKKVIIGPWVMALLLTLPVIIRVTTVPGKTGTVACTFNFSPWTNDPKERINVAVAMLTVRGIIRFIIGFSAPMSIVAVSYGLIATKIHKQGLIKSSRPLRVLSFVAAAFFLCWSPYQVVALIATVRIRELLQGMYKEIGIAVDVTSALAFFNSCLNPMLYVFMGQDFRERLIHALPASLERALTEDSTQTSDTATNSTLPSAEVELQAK

[5] = biological target: T5, Mannose-6-phosphate isomerase (Homo sapiens, UniProt P34949); test: human PMI inhibitors, high substrate, primary screen, biochemical, fluorescence intensity, high mannose 6-phosphate (AID 1220)
T5 sequence (P34949 whole entry): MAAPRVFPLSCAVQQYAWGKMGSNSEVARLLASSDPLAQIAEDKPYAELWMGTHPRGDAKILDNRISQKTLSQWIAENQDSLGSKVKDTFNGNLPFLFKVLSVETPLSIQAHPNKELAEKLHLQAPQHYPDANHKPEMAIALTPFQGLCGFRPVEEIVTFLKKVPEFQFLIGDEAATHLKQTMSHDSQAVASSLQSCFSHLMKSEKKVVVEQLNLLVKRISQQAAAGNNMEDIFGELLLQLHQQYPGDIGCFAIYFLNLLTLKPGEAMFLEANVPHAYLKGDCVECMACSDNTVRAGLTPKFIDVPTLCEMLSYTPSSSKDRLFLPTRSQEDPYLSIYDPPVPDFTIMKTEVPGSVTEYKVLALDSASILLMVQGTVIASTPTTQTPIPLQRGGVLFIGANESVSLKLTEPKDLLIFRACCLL

[6] = biological target: Eukaryotic translation initiation factor 4E (Mus musculus, UniProt P63073); test: eIF4E–eIF4G protein interaction inhibitors, dose response, biochemical, TR-FRET (AID 855); assay type: functional;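 also: potency for disrupting eIF4E binding to eIF4GI seen as loss of FRET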
Chain of Eukaryotic translation initiation factor 4E (P63073 whole entry): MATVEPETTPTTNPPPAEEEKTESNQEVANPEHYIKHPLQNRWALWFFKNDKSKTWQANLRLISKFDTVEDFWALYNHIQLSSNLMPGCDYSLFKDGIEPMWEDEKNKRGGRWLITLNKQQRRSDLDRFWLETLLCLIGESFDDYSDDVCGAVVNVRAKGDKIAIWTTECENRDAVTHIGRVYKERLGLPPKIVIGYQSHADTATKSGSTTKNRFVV

[7] = biological target: Genome polyprotein (dengue virus type 2, UniProt P29990); test: Dengue-2 NS5 methyltransferase inhibitors, primary screen, biochemical, confirmation dose response (AID 588689); assay type: functional
Chain of Genome polyprotein (P29990 2492-3391 limits assumed): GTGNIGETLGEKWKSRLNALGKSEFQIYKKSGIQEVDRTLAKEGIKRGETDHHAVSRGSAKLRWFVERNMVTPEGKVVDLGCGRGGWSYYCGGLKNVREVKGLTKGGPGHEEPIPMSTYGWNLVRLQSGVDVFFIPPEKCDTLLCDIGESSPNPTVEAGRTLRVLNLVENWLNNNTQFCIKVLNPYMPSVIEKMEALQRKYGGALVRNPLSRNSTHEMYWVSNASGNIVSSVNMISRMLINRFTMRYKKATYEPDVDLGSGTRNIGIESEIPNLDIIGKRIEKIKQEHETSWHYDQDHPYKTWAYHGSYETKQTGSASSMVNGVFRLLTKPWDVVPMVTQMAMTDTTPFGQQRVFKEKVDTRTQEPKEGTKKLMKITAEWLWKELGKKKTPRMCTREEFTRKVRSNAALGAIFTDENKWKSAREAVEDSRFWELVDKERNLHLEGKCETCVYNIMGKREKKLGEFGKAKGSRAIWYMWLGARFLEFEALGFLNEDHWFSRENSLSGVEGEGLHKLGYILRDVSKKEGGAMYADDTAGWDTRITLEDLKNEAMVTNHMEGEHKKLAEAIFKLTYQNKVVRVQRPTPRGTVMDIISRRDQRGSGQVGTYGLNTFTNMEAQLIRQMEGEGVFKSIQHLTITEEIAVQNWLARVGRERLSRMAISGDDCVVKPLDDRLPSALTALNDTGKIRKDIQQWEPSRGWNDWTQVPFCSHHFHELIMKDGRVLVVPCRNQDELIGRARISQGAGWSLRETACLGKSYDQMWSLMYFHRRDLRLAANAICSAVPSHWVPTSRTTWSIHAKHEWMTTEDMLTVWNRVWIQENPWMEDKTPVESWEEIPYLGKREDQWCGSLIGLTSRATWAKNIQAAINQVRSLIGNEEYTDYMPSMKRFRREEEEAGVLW

[8] = cytotoxicity in OVCAR8 ovarian cancer cells, dose response, PAX8 project, cell-based, plate reader, dry powder samples (AID 743197); assay type: functional; conditions: OVCAR-8
[9] = IGROV1 ovarian cancer cell cytotoxicity, dose response, PAX8 inhibitor project, plate reader, dry powder samples (AID 743043); assay type: functional, cell-based; conditions: IGROV-1
[10] = biological target: Paired box protein Pax-8 (Homo sapiens, UniProt Q06710); test: inhibitors of PAX8-driven TPO luciferase reporter, dose response, RMG-I cells, cherry-pick (AID 687027); assay type: functional, cell-based;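 also: luciferase reporter driven by Pax8 target thyroperoxidase promoter measured by SteadyGlo luminescence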
Chain of Paired box protein Pax-8 (Q06710 whole entry): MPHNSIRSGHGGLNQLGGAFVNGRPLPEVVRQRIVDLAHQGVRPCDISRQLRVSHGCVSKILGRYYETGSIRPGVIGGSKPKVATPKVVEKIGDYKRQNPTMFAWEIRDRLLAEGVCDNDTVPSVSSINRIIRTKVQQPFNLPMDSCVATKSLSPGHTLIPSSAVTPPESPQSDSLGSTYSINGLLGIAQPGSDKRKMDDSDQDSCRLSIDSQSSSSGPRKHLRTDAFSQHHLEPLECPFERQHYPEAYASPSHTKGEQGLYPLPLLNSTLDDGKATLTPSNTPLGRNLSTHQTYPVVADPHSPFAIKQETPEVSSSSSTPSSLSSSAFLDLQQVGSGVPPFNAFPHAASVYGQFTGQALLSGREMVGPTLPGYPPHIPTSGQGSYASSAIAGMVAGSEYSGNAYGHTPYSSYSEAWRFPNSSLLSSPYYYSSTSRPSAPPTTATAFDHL

[11] = NIH:OVCAR-3 ovarian cancer cell cytotoxicity, dose response, PAX8 inhibitor project, plate reader, dry powder samples (AID 743044); assay type: functional, cell-based
[12] = LGR2 antagonists, dose response, cell-based, HEK293, CRE-luciferase reporter, cherry pick, set 2 (AID 743343); assay type: functional;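 also: transfected cells were stimulated with diluted bursicon conditioned medium after compound addition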
[13] = biological target: T6, Heat shock factor protein 1 (Mus musculus, UniProt P38532); test: inhibition of MG132-induced HSE-luciferase signal, confirmation, cell-based, NIH3T3, luminescence, dose retest (AID 2382); assay type: functional;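 also: NIH3T3 fibroblasts with HSF1-driven luciferase reporter stressed by proteasome inhibitor MG132; luminescence from HSF1-driven luciferase expression after 8 hours of MG132 stress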
T6 sequence (P38532 whole entry): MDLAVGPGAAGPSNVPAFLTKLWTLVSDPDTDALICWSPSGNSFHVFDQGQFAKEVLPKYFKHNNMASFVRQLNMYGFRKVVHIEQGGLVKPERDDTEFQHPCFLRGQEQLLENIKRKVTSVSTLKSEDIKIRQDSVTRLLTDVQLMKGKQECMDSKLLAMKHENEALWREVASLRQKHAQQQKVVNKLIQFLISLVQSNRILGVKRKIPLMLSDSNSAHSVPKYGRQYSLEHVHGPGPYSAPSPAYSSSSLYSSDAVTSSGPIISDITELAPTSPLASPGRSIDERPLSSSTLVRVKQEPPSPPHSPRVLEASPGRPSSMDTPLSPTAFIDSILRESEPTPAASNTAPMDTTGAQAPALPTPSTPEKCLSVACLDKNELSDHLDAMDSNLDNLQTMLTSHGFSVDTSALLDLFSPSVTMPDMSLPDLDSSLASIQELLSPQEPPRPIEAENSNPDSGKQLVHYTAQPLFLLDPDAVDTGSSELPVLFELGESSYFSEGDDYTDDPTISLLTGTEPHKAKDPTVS

[14] = MC4R antagonists, dose response, counter-screen for LGR2 antagonist project, cell-based, plate reader, cherry pick (AID 743444); assay type: functional;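 also: transfected HEK 293 cells stimulated with alpha-MSH peptide; potency of inhibitors of the alpha-MSH evoked signal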

SMILES: Fc1ccccc1CSc1ncnc2c1ncn2C1CCCCO1 (stereo unspecified)
- EC50 [1]: > 67.6 µM (inactive)

SMILES: CCc1cccc(NC(=O)CN(c2ccc(OC)cc2)S(=O)(=O)c2c(C)n[nH]c2C)c1
- IC50 [2]: > 123 µM (inactive)
- IC50 [3]: > 123 µM (inactive)

SMILES: CC1=C(C(=O)OC(C)C)[C@]2(C(=O)N(CC(N)=O)c3ccccc32)C(C#N)=C(N)O1
- Ki [4]: > 66.7 µM (inactive)

SMILES: COc1cc(Cl)cc(C(c2c(C(=O)O)[nH]c3ccccc23)c2c(C(=O)O)[nH]c3ccccc23)c1O
- IC50 [7]: 16.9 µM (active)
- IC50 [2]: 54 µM (inactive)
- IC50 [3]: > 122 µM (inactive)

SMILES: COc1ccc(-c2cc(C(F)(F)F)nc(N3CCN(Cc4ccccc4)CC3)n2)cc1OC
- Ki [4]: > 66.7 µM (inactive)

SMILES: C[C@@H]1CCCCO[C@@H](CN(C)Cc2ccc(C(F)(F)F)cc2)[C@H](C)CN([C@@H](C)CO)C(=O)c2cc(NC(=O)Cc3ccccc3)ccc2O1
- AC50 [8]: 33.3 µM (active)
- AC50 [9]: 25.7 µM (active)
- AC50 [10]: 7.16 µM (active)
- AC50 [11]: 19.8 µM (active)

SMILES: C[C@@H]1CN([C@H](C)CO)C(=O)c2cc(NS(=O)(=O)c3ccc(Cl)cc3)ccc2O[C@@H](C)CCCCO[C@H]1CN(C)Cc1ccc2c(c1)OCO2
- AC50 [8]: 51.2 µM (active)
- AC50 [9]: 49.9 µM (active)
- AC50 [10]: 10.2 µM (active)
- AC50 [11]: 17.5 µM (active)

SMILES: C[C@@H]1CCCCO[C@@H](CN(C)Cc2ccncc2)[C@H](C)CN([C@@H](C)CO)C(=O)c2cc(NC(=O)Nc3ccc(C(F)(F)F)cc3)ccc2O1
- AC50 [8]: > 70 µM (inactive)
- AC50 [10]: 5.52 µM (active)
- AC50 [11]: 35.8 µM (active)

SMILES: CC(C)(C)n1ncc2c(=O)n(CC(=O)OCc3ccccc3)cnc21
- AC50 [12]: 2.51 µM (active)
- EC50 [13]: 23.5 µM (active)
- AC50 [14]: 2.3 µM (active)

SMILES: Cc1ccc(C23CC4CC(CC(C(=O)NCC(=O)O)(C4)C2)C3)cc1
- IC50 [2]: > 122 µM (inactive)
- IC50 [3]: > 122 µM (inactive)

Continued, values first:

- IC50 [5]: > 50 µM (not active)
- IC50 [6]: 27.5 µM (active)
SMILES: c1ccc2[nH]c(SN3CCOCC3)nc2c1

- Ki [4]: > 66.7 µM (inactive)
SMILES: CCOC(=O)c1cc(NC(=O)C2C3CCC(O3)C2C(=O)O)cc(C(=O)OCC)c1 (stereo unspecified)

- IC50 [2]: > 123 µM (inactive)
- IC50 [3]: > 123 µM (inactive)
SMILES: CSc1nc(N)c(C(=O)NC2CCCCC2)s1

- EC50 [1]: > 67.6 µM (inactive)
SMILES: Cc1nn(-c2nnc(NC3CCCCC3)nn2)c(C)c1Br

- EC50 [1]: > 67.5 µM (inactive)
SMILES: Cc1ccc(C(=N)NOC(=O)c2ccco2)cc1

Source: ChEMBL document CHEMBL1201862, “PubChem BioAssay data set” (2004)
